Assay results: PubChem BioAssay AID328 (DTP/NCI, 2004)
“And” between values parts separate entries of the source, which are not always exact repeats. Equal values may be shown once. Toxic doses and inconclusive results are not listed.

Tested on: BDF1 mice, P388 leukemia ip, median survival T/C
Experiment: NCI In Vivo Anticancer Drug Screen. Data for tumor model P388 Leukemia (intraperitoneal) in B6D2F1 (BDF1) mice
Conditions: endpoint: median survival time, higher = longer survival
How it was run: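 Reported as T/C, where T is the survival measurement in dosed animals and C the same measurement in vehicle controls.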

[1] = dose: 25.0 mg/kg/injection, schedule: Q01DX009 (ip), vehicle: saline with Tween-80
[2] = dose: 50.0 mg/kg/injection, schedule: Q01DX009 (ip), vehicle: saline with Tween-80
[3] = dose: 50.0 mg/kg/injection, schedule: Q04DX003 (ip), vehicle: saline with Tween-80
[4] = dose: 100.0 mg/kg/injection, schedule: Q01DX009 (ip), vehicle: saline with Tween-80
[5] = dose: 100.0 mg/kg/injection, schedule: Q04DX003 (ip), vehicle: saline with Tween-80
[6] = dose: 200.0 mg/kg/injection, schedule: Q01DX009 (ip), vehicle: saline with Tween-80
[7] = dose: 200.0 mg/kg/injection, schedule: Q04DX003 (ip), vehicle: saline with Tween-80
[8] = dose: 400.0 mg/kg/injection, schedule: Q01DX009 (ip), vehicle: saline with Tween-80
[9] = dose: 100.0 mg/kg/injection, schedule: Q01DX001 (ip), vehicle: saline with Tween-80
[10] = dose: 200.0 mg/kg/injection, schedule: Q01DX001 (ip), vehicle: saline with Tween-80
[11] = dose: 100.0 mg/kg/injection, schedule: Q04DX003 (ip), vehicle: Klucel (hydroxypropylcellulose) (HPC)
[12] = dose: 400.0 mg/kg/injection, schedule: Q04DX003 (ip), vehicle: Klucel (hydroxypropylcellulose) (HPC)
[13] = dose: 100.0 mg/kg/injection, schedule: Q04DX003 (ip), vehicle: saline
[14] = dose: 200.0 mg/kg/injection, schedule: Q04DX003 (ip), vehicle: saline
[15] = dose: 400.0 mg/kg/injection, schedule: Q04DX003 (ip), vehicle: saline

Structure (SMILES): NC1CCCCC1.[O]=[Cr](=[O])([OH])[OH]
- T/C (dose: 6.25 mg/kg/injection, schedule: Q01DX009 (ip), vehicle: saline): 100 % of control
- T/C (dose: 12.5 mg/kg/injection, schedule: Q01DX009 (ip), vehicle: saline): 90 % of control

Structure (SMILES): Cc1ccc(C(=O)O)cc1S(=O)(=O)F
- T/C [1]: 114 % of control
- T/C [2]: 104 % of control
- T/C [3]: 101 % of control
- T/C [4]: 98 % of control
- T/C [5]: 102 % of control
- T/C [6]: 104 % of control
- T/C [7]: 101 % of control
- T/C (dose: 300.0 mg/kg/injection, schedule: Q01DX009 (ip), vehicle: saline with Tween-80): 110 % of control
- T/C [8]: 123 % of control
- T/C (dose: 400.0 mg/kg/injection, schedule: Q04DX003 (ip), vehicle: saline with Tween-80): 101 % of control

Structure (SMILES): Clc1ccc2c(c1)CN1Cc3cc(Cl)ccc3C2C1
- T/C (dose: 50.0 mg/kg/injection, schedule: Q01DX001 (ip), vehicle: saline with Tween-80): 108 % of control
- T/C [9]: 108 % of control
- T/C [10]: 97 % of control

Structure (SMILES): [CH3][Sn]([CH3])([CH3])[S]C(=S)N1CCOCC1
- T/C (dose: 0.75 mg/kg/injection, schedule: Q01DX009 (ip), vehicle: Klucel (hydroxypropylcellulose) (HPC)): 97 % of control

Structure (SMILES): CC1CN(Cc2ccc([N+](=O)[O-])cc2)CC(C)N1N (stereo not drawn)
- T/C (dose: 3.12 mg/kg/injection, schedule: Q04DX003 (ip), vehicle: saline with Tween-80): 96 % of control
- T/C (dose: 6.25 mg/kg/injection, schedule: Q04DX003 (ip), vehicle: saline with Tween-80): 116 % of control
- T/C (dose: 12.5 mg/kg/injection, schedule: Q04DX003 (ip), vehicle: saline with Tween-80): 107 % of control
- T/C (dose: 25.0 mg/kg/injection, schedule: Q04DX003 (ip), vehicle: saline with Tween-80): 107 % of control

Structure (SMILES): NC(=O)NN=C1CCC(c2ccccc2)CC1 (stereo not drawn)
- T/C [2]: 112 % of control
- T/C [4]: 112 % of control

Structure (SMILES): Cc1ccc(C[N+](C)(C)C)c2ccccc12
- T/C (dose: 12.5 mg/kg/injection, schedule: Q04DX003 (ip), vehicle: saline): 107 % of control
- T/C (dose: 25.0 mg/kg/injection, schedule: Q04DX003 (ip), vehicle: saline): 105 % of control
- T/C (dose: 50.0 mg/kg/injection, schedule: Q04DX003 (ip), vehicle: saline): 96 % of control

Structure (SMILES): COc1cc(Br)cc(/C=C/[N+](=O)[O-])c1OC
- T/C (dose: 6.25 mg/kg/injection, schedule: Q01DX009 (ip), vehicle: saline with Tween-80): 113 % of control
- T/C (dose: 12.5 mg/kg/injection, schedule: Q01DX009 (ip), vehicle: saline with Tween-80): 118 % of control
- T/C [1]: 109 % of control

Structure (SMILES): O=C(O)C(O)C(O)C1[O][Sb][O]C1CO (stereo not drawn)
- T/C (dose: 22.0 mg/kg/injection, schedule: Q04DX003 (ip), vehicle: saline): 110 % of control
- T/C (dose: 50.0 mg/kg/injection, schedule: Q01DX009 (ip), vehicle: saline): 150 % of control
- T/C (dose: 75.0 mg/kg/injection, schedule: Q01DX009 (ip), vehicle: saline): 155 % of control
- T/C (dose: 100.0 mg/kg/injection, schedule: Q01DX009 (ip), vehicle: saline): 166 % of control
- T/C (dose: 150.0 mg/kg/injection, schedule: Q01DX009 (ip), vehicle: saline): 155 % of control
- T/C (dose: 150.0 mg/kg/injection, schedule: Q04DX003 (ip), vehicle: saline): 177 % of control
- T/C (dose: 225.0 mg/kg/injection, schedule: Q01DX009 (ip), vehicle: saline): 150 % of control and 183 % of control

Structure (SMILES): CC(C)(C)c1ccc(C(c2ccc(C(C)(C)C)cc2)C(Cl)Cl)cc1
- T/C [11]: 91 % of control
- T/C (dose: 200.0 mg/kg/injection, schedule: Q04DX003 (ip), vehicle: Klucel (hydroxypropylcellulose) (HPC)): 91 % of control
- T/C [12]: 95 % of control

Structure (SMILES): CC(=O)N\C(N)=N/N=C\C(C)=N/N=C(\N)NC(C)=O
- T/C [2]: 97 % of control
- T/C [4]: 100 % of control
- T/C [6]: 100 % of control

Structure (SMILES): CC(=O)NNC(=O)c1ccncc1
- T/C [13]: 100 % of control
- T/C [14]: 118 % of control
- T/C [15]: 100 % of control

Structure (SMILES): CCC(=O)Nc1cccc(Cl)c1
- T/C [9]: 109 % of control
- T/C [10]: 109 % of control
- T/C (dose: 400.0 mg/kg/injection, schedule: Q01DX001 (ip), vehicle: saline with Tween-80): 90 % of control

Structure (SMILES): OC1c2cc(Cl)ccc2-c2c(Cl)cc(Cl)cc21 (stereo not drawn)
- T/C [2]: 104 % of control
- T/C [4]: 100 % of control
- T/C [5]: 91 % of control
- T/C [6]: 108 % of control
- T/C [7]: 100 % of control

Structure (SMILES): CC(Cl)CN(Cc1cc(O)c(CN(CC(C)Cl)CC(C)Cl)cc1O)CC(C)Cl (stereo not drawn)
- T/C [11]: 118 % of control
- T/C (dose: 264.0 mg/kg/injection, schedule: Q04DX003 (ip), vehicle: Klucel (hydroxypropylcellulose) (HPC)): 91 % of control
- T/C (dose: 264.0 mg/kg/injection, schedule: Q04DX003 (ip), vehicle: saline): 113 % of control
- T/C [12]: 154 % of control
- T/C [15]: 109 % of control

Structure (SMILES): Cc1cc(=O)[nH]c(N/N=C/c2ccco2)n1
- T/C (dose: 12.5 mg/kg/injection, schedule: Q01DX009 (ip), vehicle: gum acacia): 108 % of control
- T/C (dose: 25.0 mg/kg/injection, schedule: Q01DX009 (ip), vehicle: gum acacia): 104 % of control
- T/C (dose: 50.0 mg/kg/injection, schedule: Q01DX009 (ip), vehicle: gum acacia): 108 % of control
- T/C (dose: 100.0 mg/kg/injection, schedule: Q04DX003 (ip), vehicle: gum acacia): 109 % of control
- T/C (dose: 200.0 mg/kg/injection, schedule: Q04DX003 (ip), vehicle: gum acacia): 118 % of control

Structure (SMILES): Nc1ccc(O)cc1
- T/C (dose: 264.0 mg/kg/injection, schedule: Q01DX009 (ip), vehicle: saline sonified): 109 % of control
- T/C (dose: 400.0 mg/kg/injection, schedule: Q01DX009 (ip), vehicle: saline sonified): 90 % of control

Structure (SMILES): O=S1(=O)CCN(C2CCCC2)CC1
- T/C (dose: 50.0 mg/kg/injection, schedule: Q01DX009 (ip), vehicle: Klucel (hydroxypropylcellulose) (HPC)): 104 % of control
- T/C (dose: 100.0 mg/kg/injection, schedule: Q01DX009 (ip), vehicle: Klucel (hydroxypropylcellulose) (HPC)): 121 % of control
- T/C (dose: 200.0 mg/kg/injection, schedule: Q01DX009 (ip), vehicle: Klucel (hydroxypropylcellulose) (HPC)): 111 % of control

Structure (SMILES): CC(CC(=O)c1ccccc1)=Nc1ccccc1.CC(CC(=O)c1ccccc1)=Nc1ccccc1.[Cu]
- T/C (dose: 100.0 mg/kg/injection, schedule: Q01DX001 (ip), vehicle: saline sonified): 100 % of control
- T/C (dose: 200.0 mg/kg/injection, schedule: Q01DX001 (ip), vehicle: saline sonified): 100 % of control
- T/C (dose: 400.0 mg/kg/injection, schedule: Q01DX001 (ip), vehicle: saline sonified): 90 % of control

Structure (SMILES): O=C1NC(=O)C2(CCCCCC2)N1
- T/C [2]: 100 % of control
- T/C [3]: 112 % of control
- T/C [4]: 112 % of control
- T/C (dose: 100.0 mg/kg/injection, schedule: Q04DX003 (ip), vehicle: saline sonified): 95 % of control
- T/C [5]: 104 % of control
- T/C [6]: 108 % of control
- T/C (dose: 200.0 mg/kg/injection, schedule: Q04DX003 (ip), vehicle: saline sonified): 95 % of control
- T/C [7]: 100 % of control
- T/C (dose: 400.0 mg/kg/injection, schedule: Q04DX003 (ip), vehicle: saline sonified): 104 % of control

Structure (SMILES): O=C(Cn1ccc(=O)[nH]c1=O)c1ccc(Cl)s1
- T/C [4]: 101 % of control and 112 % of control
- T/C [6]: 102 % of control and 105 % of control
- T/C [8]: 101 % of control and 115 % of control

Structure (SMILES): O=C1C=CC(=O)C23CC=CCC12C(=O)c1ccccc1C3=O (stereo not drawn)
- T/C (dose: 6.25 mg/kg/injection, schedule: Q04DX003 (ip), vehicle: water): 107 % of control
- T/C (dose: 12.5 mg/kg/injection, schedule: Q04DX003 (ip), vehicle: water): 107 % of control
- T/C (dose: 25.0 mg/kg/injection, schedule: Q04DX003 (ip), vehicle: water): 92 % of control

Structure (SMILES): CCOC(=O)C(C(=O)OCC)C(C)C
- T/C [13]: 105 % of control
- T/C [14]: 105 % of control
- T/C [15]: 115 % of control
